This passage reports pest or weed control and mortality results from US10251394B2, “Molecules having pesticidal utility, and intermediates, compositions, and processes, related thereto” (Dow AgroSciences LLC, priority 2016, dated 2019).

Test [1] relates to Cabbage Looper (Trichoplusia ni). The test can be described thus: Bioassay on Cabbage Looper (CL), 128-well diet tray assay. The class given is in vivo. The settings on record: for pest or weed control at 50 µg/cm2: Cabbage Looper, Table ABC, read-out: CL rating. The method, boiled down: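 Second-instar larvae, one to five per well, placed on artificial diet surface-treated with 50 μg/cm^2 compound in acetone-water, eight wells per compound. Held 5-7 days at 25° C, 14:10 light-dark; percent mortality per well averaged across wells.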

Test [2] relates to Beet Armyworm (Spodoptera exigua). Briefly: Bioassay on Beet Armyworm (BAW), 128-well diet tray assay. The class given is in vivo. The settings on record: for pest or weed control at 50 µg/cm2: Beet Armyworm, Table ABC, read-out: BAW rating. The gist of the method: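 Second-instar larvae (one to five per well) placed on artificial diet surface-treated with 50 μg/cm^2 test molecule in 90:10 acetone-water, dried, eight wells per molecule. Held at 25° C, 14:10 light-dark, five to seven days; percent mortality recorded per well and averaged across the eight wells.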

Structures are written as SMILES.

`O=C(NC1CCCN(CC(F)(F)F)C1=O)c1ccc(/C(F)=C/C(c2cc(Cl)c(Cl)c(Cl)c2)C(F)(F)F)cc1C(F)(F)F` (stereo not drawn) [F104, (Z)—N-(2-Oxo-1-(2,2,2-trifluoroethyl)piperidin-3-yl)-4-(1,4,4,4-tetrafluoro-3-(3,4,5-trichlorophenyl)but-1-en-1-yl)-2-(trifluoromethyl)benzamide]: the pest or weed control at 50 µg/cm2 in test [1] and in test [2] was 50 to 100% in each case.
In the case of `O=C(NC1(C(=O)NCCC(F)(F)F)CC1)c1ccc(/C(F)=C/C(c2cc(Cl)c(Cl)c(Cl)c2)C(F)(F)F)cc1C(F)(F)F` (stereo not drawn) [F90, (Z)-4-(1,4,4,4-Tetrafluoro-3-(3,4,5-trichlorophenyl)but-1-en-1-yl)-2-(trifluoromethyl)-N-(1-((3,3,3-trifluoropropyl)carbamoyl)cyclopropyl)benzamide], the pest or weed control at 50 µg/cm2 in test [1] and in test [2] was 50 to 100% throughout.
On to `C[C@@H](NC(=O)c1ccc(/C(F)=C/C(c2cc(Cl)c(Cl)c(C#CC(C)(C)C)c2)C(F)(F)F)cc1C(F)(F)F)C(=O)NCC(F)(F)F` (stereo partly drawn) [F191, 4-((Z)-3-(3,4-Dichloro-5-(3,3-dimethylbut-1-yn-1-yl)phenyl)-1,4,4,4-tetrafluorobut-1-en-1-yl)-N—((R)-1-oxo-1-((2,2,2-trifluoroethyl)amino)propan-2-yl)-2-(trifluoromethyl)benzamide], for which the pest or weed control at 50 µg/cm2 in test [1] and in test [2] was 50 to 100% each time.
`C[C@@H](NC(=O)c1ccc(/C(F)=C\C(c2cc(Cl)c(Cl)c(Cl)c2)C(F)(F)F)cc1C(F)(F)F)C(=O)NCC(F)(F)F` (stereo partly drawn) [F17, N—((R)-1-oxo-1-((2,2,2-trifluoroethyl)amino)propan-2-yl)-4-((E)-1,4,4,4-tetrafluoro-3-(3,4,5-trichlorophenyl)but-1-en-1-yl)-2-(trifluoromethyl)benzamide]: the pest or weed control at 50 µg/cm2 in test [1] and in test [2] was 50 to 100% each time.
Take `C[C@@H](NC(=O)c1ccc(/C(F)=C/C(c2cc(Cl)c(Cl)c(C(C)(F)F)c2)C(F)(F)F)cc1C(F)(F)F)C(=O)NCC(F)(F)F` (stereo partly drawn) [F193, 4-((Z)-3-(3,4-Dichloro-5-(1,1-difluoroethyl)phenyl)-1,4,4,4-tetrafluorobut-1-en-1-yl)-N—((R)-1-oxo-1-((2,2,2-trifluoroethyl)amino)propan-2-yl)-2-(trifluoromethyl)benzamide]: the pest or weed control at 50 µg/cm2 in test [1] and in test [2] was 50 to 100% in each case.
With `O=C(CNC(=O)c1ccc(/C(F)=C/C(c2cc(F)c(F)c(Br)c2)C(F)(F)F)cc1C(F)(F)F)NCC(F)(F)F` (stereo not drawn) [F217, (Z)-4-(3-(3-Bromo-4,5-difluorophenyl)-1,4,4,4-tetrafluorobut-1-en-1-yl)-N-(2-oxo-2-((2,2,2-trifluoroethyl)amino)ethyl)-2-(trifluoromethyl)benzamide], the pest or weed control at 50 µg/cm2 in test [1] and in test [2] was 50 to 100% each time.
As to `CCC(F)(F)C(/C=C(\F)c1ccc(C(=O)NCC(=O)NCC(F)(F)F)c(C(F)(F)F)c1)c1cc(Cl)c(Cl)c(Cl)c1` (stereo not drawn) [F87, (Z)—N-(2-Oxo-2-((2,2,2-trifluoroethyl)amino)ethyl)-4-(1,4,4-trifluoro-3-(3,4,5-trichlorophenyl)hex-1-en-1-yl)-2-(trifluoromethyl)benzamide], the pest or weed control at 50 µg/cm2 in test [1] and in test [2] was 50 to 100% in each case.
Consider `O=C(CNC(=O)c1ccc(/C(F)=C/C(c2cc(F)c(Cl)c(C(F)(F)F)c2)C(F)(F)F)cc1C(F)(F)F)NCC(F)(F)F` (stereo not drawn) [F203, (Z)-4-(3-(4-Chloro-3-fluoro-5-(trifluoromethyl)phenyl)-1,4,4,4-tetrafluoro-but-1-en-1-yl)-N-(2-oxo-2-((2,2,2-trifluoroethyl)amino)ethyl)-2-(trifluoromethyl)benzamide], for which the pest or weed control at 50 µg/cm2 in test [1] and in test [2] was 50 to 100% in each case.
As for `CN(CC(F)(F)F)C(=O)CNC(=O)c1ccc(/C(F)=C/C(c2cc(Cl)c(Cl)c(Cl)c2)C(F)(F)F)cc1Br` (stereo not drawn) [F48, (Z)-2-Bromo-N-(2-(methyl(2,2,2-trifluoroethyl)amino)-2-oxoethyl)-4-(1,4,4,4-tetrafluoro-3-(3,4,5-trichlorophenyl)but-1-en-1-yl)benzamide], the pest or weed control at 50 µg/cm2 in test [1] and in test [2] was 50 to 100% each time.
As for `C[C@@H](NC(=O)c1ccc(/C(F)=C/C(c2cc(Cl)cc(CC(F)(F)F)c2)C(F)(F)F)cc1C(F)(F)F)C(=O)NCC(F)(F)F` (stereo partly drawn) [F176, 4-((Z)-3-(3-Chloro-5-(2,2,2-trifluoroethyl)phenyl)-1,4,4,4-tetrafluorobut-1-en-1-yl)-N—((R)-1-oxo-1-((2,2,2-trifluoroethyl)amino)propan-2-yl)-2-(trifluoromethyl)benzamide], the pest or weed control at 50 µg/cm2 in test [1] and in test [2] was 50 to 100% each time.
In the case of `C[C@@H](NC(=O)c1ccc(/C(F)=C/C(c2cc(F)c(F)c(Br)c2)C(F)(F)F)cc1C(F)(F)F)C(=O)NCC(F)(F)F` (stereo partly drawn) [F214, 4-((Z)-3-(3-Bromo-4,5-difluorophenyl)-1,4,4,4-tetrafluorobut-1-en-1-yl)-N—((R)-1-oxo-1-((2,2,2-trifluoroethyl)amino)propan-2-yl)-2-(trifluoromethyl)benzamide], the pest or weed control at 50 µg/cm2 in test [1] and in test [2] was 50 to 100% throughout.
As to `Cc1cc(C(/C=C(\F)c2ccc(C(=O)N[C@H](C)C(=O)N(C)CC(F)(F)F)c(C(F)(F)F)c2)C(F)(F)F)ccc1Cl` (stereo partly drawn) [PF49, 4-((Z)-3-(4-Chloro-3-methylphenyl)-1,4,4,4-tetrafluorobut-1-en-1-yl)-N—((R)-1-(methyl(2,2,2-trifluoroethyl)amino)-1-oxopropan-2-yl)-2-(trifluoromethyl)benzamide], the pest or weed control at 50 µg/cm2 in test [1] and in test [2] was 50 to 100% each time.
In the case of `O=C(NC1(C(=O)NCC2CCC2)CC1)c1ccc(/C(F)=C/C(c2cc(Cl)c(Cl)c(Cl)c2)C(F)(F)F)cc1C(F)(F)F` (stereo not drawn) [F93, (Z)—N-(1-((Cyclobutylmethyl)carbamoyl)cyclopropyl)-4-(1,4,4,4-tetrafluoro-3-(3,4,5-trichlorophenyl)but-1-en-1-yl)-2-(trifluoromethyl)benzamide], the pest or weed control at 50 µg/cm2 in test [1] and in test [2] was 50 to 100% throughout.
Consider `O=C(N[C@@H]1CON(CC(F)(F)F)C1=O)c1ccc(/C(F)=C/C(c2cc(Cl)cc(CC(F)(F)F)c2)C(F)(F)F)cc1C(F)(F)F` (stereo partly drawn) [F178, 4-((Z)-3-(3-Chloro-5-(2,2,2-trifluoroethyl)phenyl)-1,4,4,4-tetrafluorobut-1-en-1-yl)-N—((R)-3-oxo-2-(2,2,2-trifluoroethyl)isoxazolidin-4-yl)-2-(trifluoromethyl)benzamide], for which the pest or weed control at 50 µg/cm2 in test [1] and in test [2] was 50 to 100% each time.
In the case of `CC(F)(F)C(/C=C(\F)c1ccc(C(=O)NC2(C(=O)NCC(F)(F)F)CC2)c(C(F)(F)F)c1)c1ccc(Cl)c(Cl)c1` (stereo not drawn) [F128, (Z)-4-(3-(3,4-Dichlorophenyl)-1,4,4-trifluoropent-1-en-1-yl)-N-(1-((2,2,2-trifluoroethyl)carbamoyl)cyclopropyl)-2-(trifluoromethyl)benzamide], the pest or weed control at 50 µg/cm2 in test [1] and in test [2] was 50 to 100% each time.
In the case of `C[C@@H](NC(=O)c1ccc(/C(F)=C/C(c2cc(Cl)cc(C(F)(F)F)c2)C(F)(F)F)cc1C(F)(F)F)C(=O)N(C)CC(F)(F)F` (stereo partly drawn) [PF43, 4-((Z)-3-(3-Chloro-5-(trifluoromethyl)phenyl)-1,4,4,4-tetrafluorobut-1-en-1-yl)-N—((R)-1-(methyl(2,2,2-trifluoroethyl)amino)-1-oxopropan-2-yl)-2-(trifluoromethyl)benzamide], the pest or weed control at 50 µg/cm2 in test [1] and in test [2] was 50 to 100% each time.
Turning to `C=Cc1c(Cl)cc(C(/C=C(\F)c2ccc(C(=O)NC3(C(=O)N(C)CC(F)(F)F)CC3)c(C(F)(F)F)c2)C(F)(F)F)cc1Cl` (stereo not drawn) [F111, (Z)-4-(3-(3,5-Dichloro-4-vinylphenyl)-1,4,4,4-tetrafluorobut-1-en-1-yl)-N-(1-(methyl(2,2,2-trifluoroethyl)carbamoyl)cyclopropyl)-2-(trifluoromethyl)benzamide], the pest or weed control at 50 µg/cm2 in test [1] and in test [2] was 50 to 100% each time.
Take `C[C@@H](NC(=O)c1ccc(/C(F)=C/C(c2ccc(OCC(F)(F)F)c(Cl)c2)C(F)(F)F)cc1C(F)(F)F)C(=O)NCC(F)(F)F` (stereo partly drawn) [F162, 4-((Z)-3-(3-Chloro-4-(2,2,2-trifluoroethoxy)phenyl)-1,4,4,4-tetrafluorobut-1-en-1-yl)-N—((R)-1-oxo-1-((2,2,2-trifluoroethyl)amino)propan-2-yl)-2-(trifluoromethyl)benzamide]: the pest or weed control at 50 µg/cm2 in test [1] and in test [2] was 50 to 100% in each case.
As for `C[C@@H](NC(=O)c1ccc(/C(F)=C/C(c2cc(Cl)c(Cl)c(Cl)c2)C(F)(F)F)cc1)C(=O)NCC(F)(F)F` (stereo partly drawn) [FC2, N—((R)-1-Oxo-1-((2,2,2-trifluoroethyl)amino)propan-2-yl)-4-((Z)-1,4,4,4-tetrafluoro-3-(3,4,5-trichlorophenyl)but-1-en-1-yl)benzamide], the mortality at 0.05 µg/cm2 worked out at 0% in test [1] (168 h, 0.05 μg/cm^2 on artificial diet, second instar larvae, five to seven days, read-out: CL Percent control (or mortality)) and 0% in test [2] (168 h, 0.05 μg/cm^2 on artificial diet, second instar larvae, five to seven days, read-out: BAW Percent control (or mortality)). The mortality at 0.5 µg/cm2 in test [1] (168 h, 0.5 μg/cm^2 on artificial diet, second instar larvae, five to seven days, read-out: CL Percent control (or mortality)) is 100%; in test [2] (168 h, 0.5 μg/cm^2 on artificial diet, second instar larvae, five to seven days, read-out: BAW Percent control (or mortality)), 100%. Further, the mortality at 5 µg/cm2 was found to be 100% in test [1] (168 h, 5 μg/cm^2 on artificial diet, second instar larvae, five to seven days, read-out: CL Percent control (or mortality)) and 100% in test [2] (168 h, 5 μg/cm^2 on artificial diet, second instar larvae, five to seven days, read-out: BAW Percent control (or mortality)).

Broadly, the mortality is the percentage killed.
